Reference: PubChem BioAssay (NCI)
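Five concentrations, 48 hours, 96-well plates. Definition used: TGI = concentration required for complete inhibition of growth.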

Assays:
Assay in all cases: inhibition of tumour cell growth, NCI panel, 48 h
[1] = tested on: SF-539 CNS
[2] = tested on: UACC-257 melanoma
[3] = tested on: OVCAR-8 ovarian
[4] = tested on: MALME-3M melanoma
[5] = tested on: HCT-116 colon
[6] = tested on: NCI-H226 lung
[7] = tested on: SF-295 CNS
[8] = tested on: HOP-92 NSCLC
[9] = tested on: SK-MEL-2 melanoma
[10] = tested on: PC-3 prostate

Row | SMILES | TGI [1] [µM] | TGI [2] [µM] | TGI [3] [µM] | TGI [4] [µM] | TGI [5] [µM] | TGI [6] [µM] | TGI [7] [µM] | TGI [8] [µM] | TGI [9] [µM] | TGI [10] [µM]
1 | CCCCc1c2c([n+]([O-])c3c1CCCC3)CCCC2 | > 100 | > 100 | > 100 | > 100 | > 100 | > 100 | > 100 |  |  | 
2 | Cc1[nH]n(C(=O)Cc2ccccc2)c(=O)c1/C=C1\C(=O)C=Cc2ccccc21 | 75.2 | > 100 | > 100 | 40.2 | > 100 | > 100 | > 100 |  |  | 
3 | CC(C)=CCN1c2ccccc2[C@@]2(CC=C(C)C)CCN(C)[C@@H]12 | 64.9 |  | 90.2 | 38.4 | 73.2 | > 100 | 46.6 | > 100 | 33.3 | > 100
4 | O=C(NNC(=O)c1cc2ccccc2[nH]1)c1cc2ccccc2[nH]1 | > 100 | > 100 | > 100 | > 100 | > 100 | > 100 | > 100 |  | > 100 | > 100
5 | CCCCCCCCCCCCOC(=N)N1CCOCC1 | 19.1 | 23.9 | 33.5 | 34.5 | 22.6 | 37.2 | 31.7 | 13.8 | 23.9 | 
6 | COCc1nc(C#N)c(N)o1 | > 10 | > 10 | > 10 | > 10 | > 10 | > 10 | > 10 | > 10 |  | > 10
7 | COC(=O)c1c(O)ccc2c1c1c(n2CCc2ccccc2)C(=O)c2ccccc2C1 | 45.2 | 44 | > 100 | > 100 | 35.8 | 40 |  | 30.9 | 40.5 | 50.6
8 | CC1=C(C(N)=O)C(c2ccncc2)C(C#N)C(=O)N1 (stereo not drawn) | > 100 | > 100 |  |  | > 100 |  | > 100 | > 100 | > 100 | > 100
9 | C/C(=C/C(=O)N(C)c1ccccc1Cl)O[Si](C(C)C)(C(C)C)C(C)C | 38.3 | 66.4 | 47 | 51.5 | 34.2 | 34.5 | 74.8 | 31.1 |  | 
10 | CCOc1cc(NC(C)=O)ccc1C(=O)NN1C(=O)/C(=C/c2ccc(Cl)cc2)N=C1c1ccccc1 | > 100 | > 100 | > 100 |  | > 100 | > 100 | > 100 | > 100 | > 100 | > 100
11 | CCOC(=O)c1nc2ccccc2nc1Oc1ccc(F)cc1 | > 100 | > 100 | > 100 |  | > 100 | > 100 | > 100 | > 100 | > 100 | > 100
12 | CC(C)c1cc(C(C)C)c(S(=O)(=O)N/N=C2\CC3CCC2(C)C3(C)C)c(C(C)C)c1 (stereo not drawn) |  | 26.2 | > 100 | > 100 | > 100 | 80 | 63.9 |  | > 100 | > 100
13 | CSc1cnc2ccccc2c1Sc1cn(C)c2ccccc2c1=O | > 100 | > 100 | 45 | > 100 | > 100 | 73.8 | > 100 | 67 | > 100 | 
14 | CN1CN(c2ccccc2)C2(CCN(CCCN(C)c3ccc(F)cc3)CC2)C1=O | 39.7 | 33.6 | 45.2 | 38.1 | 25.4 | 45.1 | 28.3 |  | 33.5 | 63.8
15 | C(#C[C@@]12CCC[C@@H]1NCO2)c1ccc2c(c1)OCO2 | > 100 | > 100 | > 100 | > 100 |  | > 100 | > 100 | > 100 | > 100 | > 100
16 | N#CC(NNC(=O)c1ccccc1O)c1ccccc1O (stereo not drawn) | 40.9 | 83 | > 100 | 96.1 | > 100 | 25.1 | > 100 | > 100 | > 100 | 
17 | COc1cc(N(CCC#N)CCC#N)ccc1/C(N=Nc1cccc([N+](=O)[O-])c1)=N\NC(=O)c1ccc(C)cc1 |  | 60.9 | > 100 | > 100 | > 100 | > 100 | > 100 | > 100 | > 100 | > 100
18 | COc1cc(OC)cc(Oc2nc3ccc(C(F)(F)F)cc3nc2-c2ccccc2)c1 | > 100 | > 100 | > 100 | > 100 | > 100 | > 100 | > 100 | > 100 |  | > 100
19 | FC(F)(F)c1ccc2c(c1)nc(Cc1ccc(Cl)cc1)n2CC1CCCN2CCCCC12 (stereo not drawn) |  | 8.41 | 23.4 | 3.8 | 19.9 | 24.2 | 22.3 | 20.4 | 26.4 | 20.9
20 | COC(=O)c1c(C(=O)OC)c2ccccn2c1-c1cc(C)cc2c1C(=O)C=CC2=O | 15.7 | 13.6 | 14.4 | 15 | 15.7 | 19.7 | 18 |  | 17.2 | 18.5
21 | O=C(c1ccccc1)N1N=C(C(F)(F)F)CC1(O)C(F)(F)F (stereo not drawn) | > 100 | > 100 | > 100 | > 100 | > 100 | > 100 | > 100 |  | > 100 | > 100
22 | Cn1c2ccccc2n2c3ccccc3c3nnc(N)c-3c12 |  | > 100 | > 100 | 32.3 | > 100 | > 100 | > 100 | > 100 | > 79.5 | > 100
23 | COc1ccc(N(c2ccc(C#N)cc2)c2ccc(C#N)cc2)cc1 | > 100 | > 100 | > 100 |  | > 100 | > 100 | > 100 | > 100 | > 100 | > 100
24 | COC(=O)[C@]1(CCC(C)=O)C(=O)C=CN([C@H](C)c2ccccc2)[C@@H]1Cc1ccc(OC)c(OCc2ccccc2)c1I | 32.9 | 32.6 | 85.2 |  | 27 | 34.3 | 35.2 | 21.3 | 31.7 | 74.5
